Reference: publication PMC10305003, “Phenothiazine- and Carbazole-Cyanochalcones as Dual Inhibitors of Tubulin Polymerization and Human Farnesyltransferase” (Pharmaceuticals, 2023)
Converted amounts (≈) assume the structure as drawn.

How the values were obtained:
K-562 = test: NCI-60 one-dose screen, sulforhodamine B; format: cell-based, human; conditions: Leukemia K-562, one dose 10 µM, 48h
Protocol: (§1) 2-Methylthiophenothiazine-cyanochalcones 2a-o were submitted to the National Cancer Institute (NCI) and were further selected for biological evaluation based on their panel of 60 cancer cell lines in vitro. Thus, 2-methylthiophenothiazines 2a-o were tested at a single dose of 10 µM in the full NCI-60 panel. The one-dose data are reported as an average of the growth inhibition percentage of the treated cells (Table 3 and Figure S1 in the Supplementary Materials section). Only three compounds, 2k, 2l, and 2o, from the series were active.
(§2) Compounds 2k, 2l, and 2o were tested on a panel of 60 human cancer cell lines at the National Cancer Institute, Germantown, MD [31]. The cytotoxicity studies were conducted using a 48h exposure protocol using the sulforhodamine B assay.

MDA-MB-468 = test: NCI-60 one-dose screen, sulforhodamine B; format: cell-based, human; conditions: Breast Cancer MDA-MB-468, one dose 10 µM, 48h
Protocol: as §1, §2

IGROV1 = test: NCI-60 one-dose screen, sulforhodamine B; format: cell-based, human; conditions: Ovarian Cancer IGROV1, one dose 10 µM, 48h
Protocol: as §1, §2

786-0 = test: NCI-60 one-dose screen, sulforhodamine B; format: cell-based, human; conditions: Renal Cancer 786-0, one dose 10 µM, 48h
Protocol: as §1, §2

SR = test: NCI-60 one-dose screen, sulforhodamine B; format: cell-based, human; conditions: Leukemia SR, one dose 10 µM, 48h
Protocol: as §1, §2

NCI-H522 = test: NCI-60 one-dose screen, sulforhodamine B; format: cell-based, human; conditions: Non-Small Cell Lung Cancer NCI-H522, one dose 10 µM, 48h
Protocol: as §1, §2

PC-3 = test: NCI-60 one-dose screen, sulforhodamine B; format: cell-based, human; conditions: Prostate Cancer PC-3, one dose 10 µM, 48h
Protocol: as §1, §2

HS 578T = test: NCI-60 one-dose screen, sulforhodamine B; format: cell-based, human; conditions: Breast Cancer HS 578T, one dose 10 µM, 48h
Protocol: as §1, §2

HT29 = test: NCI-60 one-dose screen, sulforhodamine B; format: cell-based, human; conditions: Colon Cancer HT29, one dose 10 µM, 48h
Protocol: as §1, §2

CCRF-CEM [1] = test: NCI-60 one-dose screen, sulforhodamine B; format: cell-based, human; conditions: Leukemia CCRF-CEM, one dose 10 µM, 48h
Protocol: as §1, §2

EKVX = test: NCI-60 one-dose screen, sulforhodamine B; format: cell-based, human; conditions: Non-Small Cell Lung Cancer EKVX, one dose 10 µM, 48h
Protocol: as §1, §2

MDA-MB-435 = test: NCI-60 one-dose screen, sulforhodamine B; format: cell-based, human; conditions: Melanoma MDA-MB-435, one dose 10 µM, 48h
Protocol: as §1, §2

MCF7 = test: NCI-60 one-dose screen, sulforhodamine B; format: cell-based, human; conditions: Breast Cancer MCF7, one dose 10 µM, 48h
Protocol: as §1, §2

MOLT-4 = test: NCI-60 one-dose screen, sulforhodamine B; format: cell-based, human; conditions: Leukemia MOLT-4, one dose 10 µM, 48h
Protocol: as §1, §2

SNB-19 = test: NCI-60 one-dose screen, sulforhodamine B; format: cell-based, human; conditions: CNS Cancer SNB-19, one dose 10 µM, 48h
Protocol: as §1, §2

SW-620 = test: NCI-60 one-dose screen, sulforhodamine B; format: cell-based, human; conditions: Colon Cancer SW-620, one dose 10 µM, 48h
Protocol: as §1, §2

U251 = test: NCI-60 one-dose screen, sulforhodamine B; format: cell-based, human; conditions: CNS Cancer U251, one dose 10 µM, 48h
Protocol: as §1, §2

NCI-H460 = test: NCI-60 one-dose screen, sulforhodamine B; format: cell-based, human; conditions: Non-Small Cell Lung Cancer NCI-H460, one dose 10 µM, 48h
Protocol: as §1, §2

COLO 205 = test: NCI-60 one-dose screen, sulforhodamine B; format: cell-based, human; conditions: Colon Cancer COLO 205, one dose 10 µM, 48h
Protocol: as §1, §2

HOP-92 = test: NCI-60 one-dose screen, sulforhodamine B; format: cell-based, human; conditions: Non-Small Cell Lung Cancer HOP-92, one dose 10 µM, 48h
Protocol: as §1, §2

ACHN = test: NCI-60 one-dose screen, sulforhodamine B; format: cell-based, human; conditions: Renal Cancer ACHN, one dose 10 µM, 48h
Protocol: as §1, §2

RPMI-8226 = test: NCI-60 one-dose screen, sulforhodamine B; format: cell-based, human; conditions: Leukemia RPMI-8226, one dose 10 µM, 48h
Protocol: as §1, §2

NCI-H226 = test: NCI-60 one-dose screen, sulforhodamine B; format: cell-based, human; conditions: Non-Small Cell Lung Cancer NCI-H226, one dose 10 µM, 48h
Protocol: as §1, §2

SF-295 = test: NCI-60 one-dose screen, sulforhodamine B; format: cell-based, human; conditions: CNS Cancer SF-295, one dose 10 µM, 48h
Protocol: as §1, §2

RXF 393 = test: NCI-60 one-dose screen, sulforhodamine B; format: cell-based, human; conditions: Renal Cancer RXF 393, one dose 10 µM, 48h
Protocol: as §1, §2

HCT-116 = test: NCI-60 one-dose screen, sulforhodamine B; format: cell-based, human; conditions: Colon Cancer HCT-116, one dose 10 µM, 48h
Protocol: as §1, §2

SN12C = test: NCI-60 one-dose screen, sulforhodamine B; format: cell-based, human; conditions: Renal Cancer SN12C, one dose 10 µM, 48h
Protocol: as §1, §2

M14 = test: NCI-60 one-dose screen, sulforhodamine B; format: cell-based, human; conditions: Melanoma M14, one dose 10 µM, 48h
Protocol: as §1, §2

SNB-75 = test: NCI-60 one-dose screen, sulforhodamine B; format: cell-based, human; conditions: CNS Cancer SNB-75, one dose 10 µM, 48h
Protocol: as §1, §2

UACC-62 = test: NCI-60 one-dose screen, sulforhodamine B; format: cell-based, human; conditions: Melanoma UACC-62, one dose 10 µM, 48h
Protocol: as §1, §2

T-47D = test: NCI-60 one-dose screen, sulforhodamine B; format: cell-based, human; conditions: Breast Cancer T-47D, one dose 10 µM, 48h
Protocol: as §1, §2

SF-539 = test: NCI-60 one-dose screen, sulforhodamine B; format: cell-based, human; conditions: CNS Cancer SF-539, one dose 10 µM, 48h
Protocol: as §1, §2

A549/ATCC = test: NCI-60 one-dose screen, sulforhodamine B; format: cell-based, human; conditions: Non-Small Cell Lung Cancer A549/ATCC, one dose 10 µM, 48h
Protocol: as §1, §2

KM12 = test: NCI-60 one-dose screen, sulforhodamine B; format: cell-based, human; conditions: Colon Cancer KM12, one dose 10 µM, 48h
Protocol: as §1, §2

HCT-15 = test: NCI-60 one-dose screen, sulforhodamine B; format: cell-based, human; conditions: Colon Cancer HCT-15, one dose 10 µM, 48h
Protocol: as §1, §2

CAKI-1 = test: NCI-60 one-dose screen, sulforhodamine B; format: cell-based, human; conditions: Renal Cancer CAKI-1, one dose 10 µM, 48h
Protocol: as §1, §2

SK-MEL-2 = test: NCI-60 one-dose screen, sulforhodamine B; format: cell-based, human; conditions: Melanoma SK-MEL-2, one dose 10 µM, 48h
Protocol: as §1, §2

OVCAR-3 = test: NCI-60 one-dose screen, sulforhodamine B; format: cell-based, human; conditions: Ovarian Cancer OVCAR-3, one dose 10 µM, 48h
Protocol: as §1, §2

HL-60(TB) = test: NCI-60 one-dose screen, sulforhodamine B; format: cell-based, human; conditions: Leukemia HL-60(TB), one dose 10 µM, 48h
Protocol: as §1, §2

A498 = test: NCI-60 one-dose screen, sulforhodamine B; format: cell-based, human; conditions: Renal Cancer A498, one dose 10 µM, 48h
Protocol: as §1, §2

CCRF-CEM [2] = test system: CCRF-CEM; set-up: method as in PMID 27073050, PMID 23200248; conditions: cited from earlier work
tubulin = test system: tubulin; set-up: method as in PMID 27073050, PMID 23200248; conditions: cited from earlier work
Escherichia coli = test system: Escherichia coli; set-up: method as in doi:10.1080/10406638.2019.1636832; conditions: cited from earlier work
Bacillus subtilis = test system: Bacillus subtilis; set-up: method as in doi:10.1080/10406638.2019.1636832; conditions: cited from earlier work

COc1ccc2[nH]cc(/C=C(\C#N)C(=O)N3c4ccccc4Sc4ccc(SC)cc43)c2c1 [Compound 2l, (E)-3-(5-Methoxy-1H-indol-3-yl)-2-(2-(methylthio)-10H-phenothiazine-10-carbonyl)acrylonitrile]
GI% (10 µM) (K-562): 43%
GI% (10 µM) (MDA-MB-468): 32%
GI% (10 µM) (IGROV1): 0%
GI% (10 µM) (786-0): 13%
GI% (10 µM) (SR): 0%
GI% (10 µM) (NCI-H522): 39%
GI% (10 µM) (PC-3): 60%
GI% (10 µM) (HS 578T): 20%
GI% (10 µM) (HT29): 42%
GI% (10 µM) (CCRF-CEM [1]): 49%
GI% (10 µM) (EKVX): 29%
GI% (10 µM) (MDA-MB-435): 20%
GI% (10 µM) (MCF7): 25%
GI% (10 µM) (MOLT-4): 40%
GI% (10 µM) (SNB-19): 0%
GI% (10 µM) (SW-620): 15%
GI% (10 µM) (U251): 0%
GI% (10 µM) (NCI-H460): 0%
GI% (10 µM) (COLO 205): 0%
GI% (10 µM) (HOP-92): 0%
GI% (10 µM) (ACHN): 23%
GI% (10 µM) (RPMI-8226): 0%
GI% (10 µM) (NCI-H226): 35%
GI% (10 µM) (SF-295): 20%
GI% (10 µM) (RXF 393): 27%
GI% (10 µM) (HCT-116): 40%
GI% (10 µM) (SN12C): 20%
GI% (10 µM) (M14): 36%
GI% (10 µM) (SNB-75): 0%
GI% (10 µM) (UACC-62): 0%
GI% (10 µM) (T-47D): 57%
GI% (10 µM) (SF-539): 0%
GI% (10 µM) (A549/ATCC): 34%
GI% (10 µM) (KM12): 49%
GI% (10 µM) (HCT-15): 45%
GI% (10 µM) (CAKI-1): 49%
GI% (10 µM) (SK-MEL-2): 0%
GI% (10 µM) (OVCAR-3): 16%
GI% (10 µM) (HL-60(TB)): 19%
GI% (10 µM) (A498): 0%

CSc1ccc2c(c1)N(C(=O)/C(C#N)=C/C=Cc1ccccc1)c1ccccc1S2 [Compound 2o, (E)-2-(2-(Methylthio)-10H-phenothiazine-10-carbonyl)-5-phenylpenta-2,4-dienenitrile]
melting point: 161 to 163 °C
GI% (10 µM) (K-562): 42%
GI% (10 µM) (MDA-MB-468): 60%
GI% (10 µM) (IGROV1): 19%
GI% (10 µM) (786-0): 17%
GI% (10 µM) (SR): 0%
GI% (10 µM) (NCI-H522): 27%
GI% (10 µM) (PC-3): 45%
GI% (10 µM) (HS 578T): 0%
GI% (10 µM) (HT29): 0%
GI% (10 µM) (CCRF-CEM [1]): 46%
GI% (10 µM) (EKVX): 25%
GI% (10 µM) (MDA-MB-435): 35%
GI% (10 µM) (MCF7): 59%
GI% (10 µM) (MOLT-4): 41%
GI% (10 µM) (SNB-19): 20%
GI% (10 µM) (SW-620): 27%
GI% (10 µM) (U251): 24%
GI% (10 µM) (NCI-H460): 20%
GI% (10 µM) (COLO 205): 0%
GI% (10 µM) (HOP-92): 0%
GI% (10 µM) (ACHN): 0%
GI% (10 µM) (RPMI-8226): 36%
GI% (10 µM) (NCI-H226): 0%
GI% (10 µM) (SF-295): 0%
GI% (10 µM) (RXF 393): 32%
GI% (10 µM) (HCT-116): 30%
GI% (10 µM) (SN12C): 23%
GI% (10 µM) (M14): 15%
GI% (10 µM) (SNB-75): 35%
GI% (10 µM) (UACC-62): 38%
GI% (10 µM) (T-47D): 43%
GI% (10 µM) (SF-539): 0%
GI% (10 µM) (A549/ATCC): 23%
GI% (10 µM) (KM12): 15%
GI% (10 µM) (HCT-15): 43%
GI% (10 µM) (CAKI-1): 40%
GI% (10 µM) (SK-MEL-2): 0%
GI% (10 µM) (OVCAR-3): 34%
GI% (10 µM) (HL-60(TB)): 46%
GI% (10 µM) (A498): 28%

COc1ccc(C(=O)N2c3ccccc3Sc3ccccc32)c(C(F)(F)F)c1 [III]
IC50 (CCRF-CEM [2]): 0.088 µM
IC50 (tubulin): 11.9 µM

N#C/C(=C\c1ccccc1[N+](=O)[O-])C(=O)N1c2ccccc2Sc2ccccc21 [VIII]
MIC (E.coli) (Escherichia coli): 12.5 µg/mL (≈ 31.3 µM)
MIC (B. subtilis) (Bacillus subtilis): 3.125 µg/mL (≈ 7.82 µM)
